Experimental data: patent publication US7531550B2, “Pseudobase benzo[c]phenanthridines with improved efficacy, stability, and safety” (Yale University, priority 2006, dated 2009)

Legend:
Format in all cases: physicochemical
[1] = Conversion of chelerythrine pseudobases to parent chelerythrine in simulated gastric fluid (SGF); conditions: for conversion to chelerythrine chloride (1H NMR analysis): 1 mg in 5 mL, 37° C.
Protocol: Simulated Gastric Fluid (SGF): Sodium chloride (2 gm), 750 mL distilled water, and 7.0 mL of concentrated hydrochloric acid are added into a 1000 ml volumetric flask. The flask is swirled to mix and the volume brought to 1000 mL with distilled water. The pH should be approx. 1.2.
(§1) General conversion procedure: The pseudobases are placed in SGF or SIF at about 0.2 mg/mL concentration and placed in 37° C. bath with gentle stirring. For those pseudobases which have low aqueous solubility, up to 20% co-solvent such as methanol is added to facilitate dissolution. The progress of the conversion is followed by visual observation (color change) and ^1H NMR analysis.
(§2) 6-tert-Butoxy-5,6-dihydrochelerythrine (1 mg) is placed in 5 mL of simulated gastric fluid in a glass vial. The vial is gently placed in 37° C. bath with gentle stirring. The solid pseudobase gradually dissolves to give a yellow solution which is the characteristic color of the parent chelerythrine chloride.
as §2, with “6-Diethyl-(5,6-dihydrochelerythrine)-malonate” for “6-tert-Butoxy-5,6-dihydrochelerythrine”, “vial containing 10% methanol.” for “vial.”

[2] = Solubility of the chelerythrine ether dimer
From the text: (§3) The quaternary nitrogen imparts inherent chemical reactivity into these alkaloids. Nucleophiles can readily add to the adjacent carbon to create a neutral pseudobase. Water forms an unstable adduct with chelerythrine that can be seen in NMR studies. Additionally, 6-methoxy-5,6-dihydrochelerytherine and 6-ethoxy-5,6-dihydrochelerytherine (Artarine) have been reported as byproducts formed during the isolation of chelerythrine from plants utilizing methanol and ethanol extractions. The ability of this class of compounds to form pseudobases which can convert back to the quartenary […] is dependent on the solubility of the resulting pseudobase in biological media, the basicity of the leaving group adjacent to the position to become quartenary and the aromatic substitution pattern and nature of substituting agents (electron donating or withdrawing). Sanguinarine forms the hydroxyl psuedobase in pH 7.4 water to a higher extent than Chelerythrine. Under basic aqueous conditions, the hydroxypsuedobase of Cheleryturine will dimerize forming an ether bridge between two Chelerythrine molecules attached to the carbon adjacent to the ring nitrogen.

[3] = Conversion to chelerythrine in 0.1N HCL with 30% methanol; conditions: then 30% methanol added
From the text: as §3

[4] = Conversion of chelerythrine pseudobases to parent chelerythrine in simulated intestinal fluid (SIF); conditions: 1 mg in 5 mL, 37° C., after 4 h
Protocol: Simulated Intestinal Fluid (SIF): Monobasic potassium phosphate (6.8 gm) and sodium hydroxide (0.616 gm) are added into 250 ml of distilled water in a 1000 ml volumetric flask and swirled until dissolved. 700 ml distilled water is added and the pH checked. The pH is adjusted to pH 6.8+/−0.1 by adding either 0.2N sodium hydroxide or 0.2N hydrochloric acid and the volume is brought to 1000 ml.
as §1
as §2, with “N-(isopropyl)-5,6-dihydrochelerythrine-6-amine” for “6-tert-Butoxy-5,6-dihydrochelerythrine”, “intestinal” for “gastric”, “dissolved” for “dissolves”

COc1ccc2c(c1OC)C(OC1c3c(ccc(OC)c3OC)-c3ccc4cc5c(cc4c3N1C)OCO5)N(C)c1c-2ccc2cc3c(cc12)OCO3 (stereo not drawn) [compound 34, 6-(5,6-dihydrochelerytherin-6-yloxy)-5,6-dihydrochelerytherine]
conversion to Chelerythrine in simulated gastric fluids ([1]; simulated gastric fluids): does not convert readily | solubility [2]: quite insoluble | conversion to Chelerythrine [3]: occurs rapidly

COc1ccc2c(c1OC)C(OC(C)(C)C)N(C)c1c-2ccc2cc3c(cc12)OCO3 (stereo not drawn) [compound 37, 6-tert-butoxy-5,6-dihydrochelerytherine]
conversion to chelerythrine chloride (1H NMR analysis) ([1]; simulated gastric fluid, after 2 h): complete conversion

CCOC(=O)C(C(=O)OCC)C1c2c(ccc(OC)c2OC)-c2ccc3cc4c(cc3c2N1C)OCO4 (stereo not drawn) [compound 50, 6-diethyl-(5,6-dihydrochelerythrine)-malonate]
conversion to chelerythrine chloride (1H NMR analysis) ([1]; simulated gastric fluid containing 10% methanol, after 16 h): complete conversion

COc1ccc2c(c1OC)C(NC(C)C)N(C)c1c-2ccc2cc3c(cc12)OCO3 (stereo not drawn) [compound 43, N-(isopropyl)-5,6-dihydrochelerythrine-6-amine]
conversion to chelerythrine chloride (1H NMR analysis) [4]: complete conversion
